Measurements from US20240252516A1, “COMBINATION BPH THERAPY WITH FEXAPOTIDE TRIFLUTATE, A 5-ARI, AND AN ALPHA BLOCKER” (Nymox Corporation, priority 2023, published 2024).
Ends that are not written are not given here.

What was measured:
[1] = test system: patients with BPH; test: Clinical trial in men with BPH: International Prostate Symptom Score (IPSS) change from baseline; assay type: in vivo, human; conditions: oral medication together with placebo PBS injection, >2 years after treatment
Protocol: Clinical trials were conducted on numerous individuals having BPH. All protocols were done in accordance with applicable regulations, and carried out by physicians.
In a study of 978 men, patients with BPH were first administered a course of antibiotics for a period of 2-4 weeks, and then given an intraprostatic injection of either a) 10 ml of FT in phosphate buffered saline (concentration of 0.25 mg/ml), pH 7.2 (“PBS”) or b) PBS alone, under double-blind conditions by a urologist in an office setting under ultrasound guidance. Each patient was followed for a number of years with regular physical examinations, laboratory tests, and evaluations of symptoms. Symptomatic evaluation was measured by the International Prostate Symptom Score (IPSS) which is a quantitative scale used to gauge prostatic symptomatic improvement or worsening. The IPSS quantifies the following: 1) incomplete bladder emptying after urination; 2) frequent urination; 3) stopping and starting during urination; 4) urgent need to urinate; 5) weakness of urinary stream; 6) need to push or strain during urination; 7) need to urinate after going to sleep at night (nocturia). […]
Using the results from the above tables, the average mean IPSS improvement of the respective medications, or combinations of medications can be determined, as well as the percent improvement in mean IPSS when compared to the average of the actives. […]

[2] = test system: benign prostatic hyperplasia; conditions: McConnell et al.; cited from earlier work
[3] = test system: BPH patients; conditions: CombAT trial, after 2 years; cited from earlier work
[4] = test system: 5α-reductase; conditions: blood; cited from earlier work
[5] = test system: α1- than α2-adrenergic receptors; conditions: α1 versus α2 selectivity; cited from earlier work
[6] = test system: prostate glandular epithelial cells; test: Tissue culture genetic array, in vitro pathway activation; assay type: cell-based
Description: FT is a new molecular entity which in vitro stimulates caspase pathways (activation of caspases 7, 8, and 10, caspase recruitment domains 6, 11, and 14, and DIABLO), tumor necrosis factor pathways (activation of TNF1, TNFSF6, TNFSF8, TNFSF9, CD70 ligands, and TNFRSF19L, TNFRSF25, TRAF2, TRAF3, TRAF4, TRAF6 receptors), and BCL pathways (activation of BIK, HRK, BCL2L10 and BCL3) in prostate glandular epithelial cells, based on tissue culture genetic array data. FT selectively causes loss of cell membrane integrity, mitochondrial metabolic arrest, depletion of RNA, DNA lysis and aggregation, and cell fragmentation and cell loss. The apoptotic process leads to typical ultrastructural progressive changes of membranous disruption and swelling, progressively deepening nuclear invaginations with eventual membranous bleb formations and cell death and fragmentation into apoptotic bodies. Histologically, typical apoptotic changes with positive immunohistochemical staining of markers for apoptosis are found throughout the injected areas for up to several weeks after treatment.

CN1CC(=O)N2[C@H](c3ccc4c(c3)OCO4)c3[nH]c4ccccc4c3C[C@@H]2C1=O [PDE5 Inhibitor, tadalafil]
Mean IPSS Improvement, oral meds alone [1]: 4.67

COc1cc2nc(N3CCN(C(=O)C4COc5ccccc5O4)CC3)nc(N)c2cc1OC (centres unmarked) [doxazosin, 1-(4-amino-6,7-dimethoxy-2-quinazolinyl)-4-[(2,3-dihydro-1,4-benzodioxin-2-yl)carbonyl]piperazine]
long term (4 year) mean IPSS improvement [2]: 6.6

C[C@]12C=CC(=O)N[C@@H]1CC[C@@H]1[C@@H]2CC[C@]2(C)[C@@H](C(=O)Nc3cc(C(F)(F)F)ccc3C(F)(F)F)CC[C@@H]12 [dutasteride, 17β-N-(2,5-bis(Trifluoromethyl))phenylcarbamoyl-4-aza-5α-androst-1-en-3-one]
mean decrease in IPSS from baseline [3]: 4.9
reduction in circulating DHT levels [4]: up to 98%

CC(C)(C)NC(=O)[C@H]1CC[C@H]2[C@@H]3CC[C@H]4NC(=O)C=C[C@]4(C)[C@H]3CC[C@]12C [finasteride]
long term (4 year) mean IPSS improvement [2]: 5.6
reduction in circulating DHT levels [4]: 65 to 70%

Cc1ccc(N(CC2=NCCN2)c2cccc(O)c2)cc1 [phentolamine]
potency in inhibiting α1- than α2-adrenergic receptors [5]: three to five times more potent

CCOc1ccccc1OCCN[C@H](C)Cc1ccc(OC)c(S(N)(=O)=O)c1 [tamsulosin, (R)-5-(2-{[2-(2-Ethoxyphenoxy)ethyl]amino}propyl)-2-methoxybenzene-1-sulfonamide]
mean decrease in IPSS from baseline [3]: 4.3

Ile-Asp-Gln-Gln-Val-Leu-Ser-Arg-lle-Lys-Leu-Glu-lle-Lys-Arg-Cys-Leu (IDQQVLSRIKLEIKRCL; also: trifluoroacetate salt) [FT, 1: …]
BCL pathways (BIK, HRK, BCL2L10, BCL3) [6]: stimulates
caspase pathways (caspases 7, 8, 10, caspase recruitment domains 6, 11, 14, DIABLO) [6]: stimulates
tumor necrosis factor pathways (TNF1, TNFSF6, TNFSF8, TNFSF9, CD70 ligands, TNFRSF19L, TNFRSF25, TRAF2, TRAF3, TRAF4, TRAF6 receptors) [6]: stimulates
